Read-outs that look alike come from different tables or passages of the source.
How the values were obtained:
[1] = target: CDK5/p35 (Homo sapiens, UniProt Q00535); test: Z'-LYTE SelectScreen biochemical kinase assay CDK5/p35
Text: (§1) Thermo Fisher Scientific SelectScreen™ Biochemical Kinase Profiling Service Z′-LYTE™ Screening Protocol and Assay Conditions Assay Theory
(§2) The […] biochemical assay employs a fluorescence-based, coupled-enzyme format and is based on the differential sensitivity of phosphorylated and non-phosphorylated peptides to proteolytic cleavage. The peptide substrate is labeled with two fluorophores—one at each end—that make up a FRET pair. In the primary reaction, the kinase transfers the gamma-phosphate of ATP to a single tyrosine, serine or threonine residue in a synthetic FRET-peptide. In the secondary reaction, a site-specific protease recognizes and cleaves non-phosphorylated FRET-peptides. Phosphorylation of FRET-peptides suppresses cleavage by the Development Reagent. Cleavage disrupts FRET between the donor (i.e., coumarin) and acceptor (i.e., fluorescein) fluorophores on the FRET-peptide, whereas uncleaved, phosphorylated FRET-peptides maintain FRET. A ratiometric method, which calculates the ratio (Emission Ratio=Coumarin emission (445 nm)/Fluorescein emission (520 nm)) of donor emission to acceptor emission after excitation of the donor fluorophore at 400 nm, is used to quantitate reaction progress, as shown in the equation below. A significant benefit of this ratiometric method for quantitating reaction progress is the elimination of well-to-well variations in FRET-peptide concentration and signal intensities. As a result, the assay yields very high Z′-factor values (>0.7) at a low percent phosphorylation. Both cleaved and uncleaved FRET-peptides contribute to the fluorescence signals and therefore to the Emission Ratio. The extent of phosphorylation of the FRET-peptide can be calculated from the Emission Ratio. The Emission Ratio will remain low if the FRET-peptide is phosphorylated (i.e., no kinase inhibition) and will be high if the FRET-peptide is non-phosphorylated (i.e., kinase inhibition).
(§3) The Test Compounds are screened in 1% DMSO (final) in the well. For 10 point titrations, 3-fold serial dilutions are conducted from the starting concentration of the customer's choosing.
(§4) All Peptide/Kinase Mixtures are diluted to a 2× working concentration in the appropriate Kinase Buffer (see section Kinase Specific Assay Conditions for a complete description).
(§5) All ATP Solutions are diluted to a 4× working concentration in Kinase Buffer (50 mM HEPES pH 7.5, 0.01% BRIJ-35, 10 mM MgCl2, 1 mM EGTA). ATP Km apparent is previously determined using a Z″-LYTE assay.
(§6) The Development Reagent is diluted in Development Buffer (see section Kinase-Specific Assay Conditions—Direct and Cascade for a complete description).
(§7) Bar-coded Corning, low volume NBS, black 384-well plate (Corning Cat. #4514) • 1. 100 nL—100× Test Compound in 100% DMSO • 2. 2.4 μL—Kinase buffer • 3. 5 μL—2× Peptide/Kinase Mixture • 4. 2.5 μL—4×ATP Solution • 5. 30—second plate shake • 6. 60—minute Kinase Reaction incubation at room temperature • 7. 5 μL—Development Reagent Solution • 8. 30—second plate shake • 9. 60—minute Development Reaction incubation at room temperature • 10. Read on fluorescence plate reader and analyze the data Z′-LYTE Assay Controls
(§8) SelectScreen Kinase Profiling Service uses XLfit from IDBS. The dose response curve is curve fit to model number 205 (sigmoidal dose-response model).
The 2×CDK5/p35/Ser/Thr 12 mixture is prepared in 50 mM HEPES pH 7.5, 0.01% BRIJ-35, 10 mM MgCl2, 1 mM EGTA. The final 10 μL Kinase Reaction consists of 0.14-1.3 ng CDK5/p35 and 2 μM Ser/Thr 12 in 50 mM HEPES pH 7.5, 0.01% BRIJ-35, 10 mM MgCl2, 1 mM EGTA. After the 1 hour Kinase Reaction incubation, 5 μL of a 1:4096 dilution of Development Reagent A is added.

[2] = test system: Aβ42 production; test: Inhibition of Aβ42 production in H4 neuroglioma cells stably expressing human APP695 (MSD electrochemiluminescence); type: cell-based; settings: H4 neuroglioma cells expressing human APP695, 22 hours incubation; Table 4a
Description: Cells were plated out to near confluency. The compounds to be tested were received as 10 mM stocks in 100% DMSO. A dilution series was initially generated in 100% DMSO and then diluted 200-fold in cell culture media such that the tested concentration range was 30 μM to 0.1 nM and the final DMSO concentration was 0.5%. The diluted compounds were incubated with the cells for 22 hours in an incubator at 37° C. and 5% CO2. Aβ42 levels were measured post-incubation from the supernatant of the cells using an Aβ42 specific electrochemiluminescence assay provided by Meso Scale Discovery (Catalog #L21CA-1). The measurement of Aβ42 levels were performed according to the manufacturer's protocol.

[3] = target: CSF1R (FMS) (Homo sapiens, UniProt P07333); test: Z'-LYTE SelectScreen biochemical kinase assay CSF1R (FMS)
Text: as §1, §2, §3, §4, §5, §6, §7, §8
The 2×CSF1R (FMS)/Tyr 01 mixture is prepared in 50 mM HEPES pH 7.5, 0.01% BRIJ-35, 10 mM MgCl2, 1 mM EGTA. The final 10 μL Kinase Reaction consists of 0.2-40 ng CSF1R (FMS) and 2 μM Tyr 01 in 50 mM HEPES pH 7.5, 0.01% BRIJ-35, 10 mM MgCl2, 1 mM EGTA. After the 1 hour Kinase Reaction incubation, 5 μL of a 1:256 dilution of Development Reagent B is added.

[4] = 10 μmolar compound concentration, ATP at Km app, read-out: CDK5/p35 inhibition
[5] = read-out: % Inhibition mean CDK5/p35
[6] = 10 μmolar compound concentration, ATP at Km app, read-out: CSF1R (FMS) inhibition
[7] = read-out: % Inhibition mean CSF1R (FMS)

Chain of CSF1R (FMS) (P07333 20-972): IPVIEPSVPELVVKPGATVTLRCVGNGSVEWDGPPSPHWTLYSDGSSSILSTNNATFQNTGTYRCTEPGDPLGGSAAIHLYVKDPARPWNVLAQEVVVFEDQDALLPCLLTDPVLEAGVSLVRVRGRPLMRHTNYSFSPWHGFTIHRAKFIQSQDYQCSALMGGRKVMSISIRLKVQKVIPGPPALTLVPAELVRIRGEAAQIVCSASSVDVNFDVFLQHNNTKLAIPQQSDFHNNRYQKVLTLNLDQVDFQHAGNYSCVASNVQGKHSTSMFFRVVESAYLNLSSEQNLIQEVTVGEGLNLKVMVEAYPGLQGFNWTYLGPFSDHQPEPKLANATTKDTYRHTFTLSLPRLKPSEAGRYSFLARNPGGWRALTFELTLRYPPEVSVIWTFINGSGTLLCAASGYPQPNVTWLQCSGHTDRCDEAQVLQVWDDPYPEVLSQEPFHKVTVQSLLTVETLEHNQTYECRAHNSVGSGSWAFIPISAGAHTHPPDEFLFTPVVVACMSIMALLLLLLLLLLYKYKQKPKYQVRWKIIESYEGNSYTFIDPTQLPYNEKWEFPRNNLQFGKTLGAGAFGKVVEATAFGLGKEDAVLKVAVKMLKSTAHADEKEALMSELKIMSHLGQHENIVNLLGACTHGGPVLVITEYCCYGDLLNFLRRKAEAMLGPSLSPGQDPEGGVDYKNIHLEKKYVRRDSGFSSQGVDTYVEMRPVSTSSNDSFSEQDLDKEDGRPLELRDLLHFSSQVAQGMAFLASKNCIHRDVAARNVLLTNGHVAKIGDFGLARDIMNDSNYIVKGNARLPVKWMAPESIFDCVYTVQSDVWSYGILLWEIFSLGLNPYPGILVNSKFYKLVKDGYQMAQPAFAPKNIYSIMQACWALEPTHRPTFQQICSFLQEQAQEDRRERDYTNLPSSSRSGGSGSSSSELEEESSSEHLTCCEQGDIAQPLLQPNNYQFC
Chain of CDK5/p35 (Q00535 whole entry): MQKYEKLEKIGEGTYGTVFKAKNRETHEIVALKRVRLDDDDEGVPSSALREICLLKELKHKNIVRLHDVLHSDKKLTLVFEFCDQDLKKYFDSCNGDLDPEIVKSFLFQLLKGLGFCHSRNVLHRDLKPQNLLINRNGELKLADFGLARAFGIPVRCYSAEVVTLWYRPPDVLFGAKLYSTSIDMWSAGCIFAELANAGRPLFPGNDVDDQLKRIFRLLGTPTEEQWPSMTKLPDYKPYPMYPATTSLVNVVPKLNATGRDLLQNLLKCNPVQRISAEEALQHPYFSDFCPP
Chain of CDK5/p35 (Q15078 whole entry partner): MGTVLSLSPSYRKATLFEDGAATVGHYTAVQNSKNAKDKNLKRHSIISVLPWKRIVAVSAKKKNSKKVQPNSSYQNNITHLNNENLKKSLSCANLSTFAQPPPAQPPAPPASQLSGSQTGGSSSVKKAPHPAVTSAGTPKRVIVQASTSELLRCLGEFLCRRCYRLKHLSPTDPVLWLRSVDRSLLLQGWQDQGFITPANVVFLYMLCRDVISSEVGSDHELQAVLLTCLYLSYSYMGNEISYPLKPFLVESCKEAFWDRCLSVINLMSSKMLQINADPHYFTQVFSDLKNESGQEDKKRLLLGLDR

Row | Structure (SMILES) | inhibition at 10 µM [1, 4] [%] | inhibition at 10 µM [1, 5] [%] | IC50 [2] [nM] | inhibition at 10 µM [3, 6] [%] | inhibition at 10 µM [3, 7] [%]
1 | CCc1nn(C)c2c1CCC(Nc1nc3c(-c4ccc(F)cc4C)cccn3n1)C2 (centres unmarked) [Example 54, (3-Ethyl-1-methyl-4,5,6,7-tetrahydro-1H-indazol-6-yl)-[8-(4-fluoro-2-methyl-phenyl)-[1,2,4]triazolo[1,5-a]pyridine-2-yl]-amine] | < 40 | 18 | 3130 | < 40 | 27
2 | CCn1ncc2c1CCC(Nc1nc3c(-c4cccnc4)cccn3n1)C2 (centres unmarked) [Example 63, (1-Ethyl-4,5,6,7-tetrahydro-1H-indazol-5-yl)-(8-pyridin-3-yl-[1,2,4]triazolo[1,5-a]pyridine-2-yl)-amine] | 40 to 80 | 47 | 350 | 40 to 80 | 48
3 | CCn1ncc2c1CCC(Nc1nc3c(-c4ccc(C)nc4)cccn3n1)C2 (centres unmarked) [Example 67, (1-Ethyl-4,5,6,7-tetrahydro-1H-indazol-5-yl)-[8-(6-methyl-pyridin-3-yl)-[1,2,4]triazolo[1,5-a]pyridine-2-yl]-amine] | < 40 | 35 | 670 | < 40 | 29
4 | CCn1ncc2c1CCC(Nc1nc3c(-c4cccnc4OC)cccn3n1)C2 (centres unmarked) [Example 69, (1-Ethyl-4,5,6,7-tetrahydro-1H-indazol-5-yl)-[8-(2-methoxy-pyridin-3-yl)-[1,2,4]triazolo[1,5-a]pyridine-2-yl]-amine] | < 40 | 28 | 500 | < 40 | 8
5 | CCn1ncc2c1CCC(Nc1nc3c(-c4cncc(OC)c4)cccn3n1)C2 (centres unmarked) [Example 70, (1-Ethyl-4,5,6,7-tetrahydro-1H-indazol-5-yl)-[8-(5-methoxy-pyridin-3-yl)-[1,2,4]triazolo[1,5-a]pyridine-2-yl]-amine] | 40 to 80 | 58 | 200 | > 80 | 83

The next compounds have a lower IC50 [2] than those just listed; values first:

Row | inhibition at 10 µM [1, 4] [%] | inhibition at 10 µM [1, 5] [%] | IC50 [2] [nM] | inhibition at 10 µM [3, 6] [%] | inhibition at 10 µM [3, 7] [%] | Structure (SMILES)
6 | < 40 | 13 | 180 | < 40 | 34 | CCn1ncc2c1CCC(Nc1nc3c(-c4ccc(F)cc4)cccn3n1)C2 (centres unmarked) [Example 55, (1-Ethyl-4,5,6,7-tetrahydro-1H-indazol-5-yl)-[8-(4-fluoro-phenyl)-[1,2,4]triazolo[1,5-a]pyridine-2-yl]-amine]
7 | 40 to 80 | 52 | 160 | 40 to 80 | 58 | CCn1ncc2c1CCC(Nc1nc3c(-c4ccccc4C)cccn3n1)C2 (centres unmarked) [Example 56, (1-Ethyl-4,5,6,7-tetrahydro-1H-indazol-5-yl)-[8-(2-methyl-phenyl)-[1,2,4]triazolo[1,5-a]pyridine-2-yl]-amine]
8 | 40 to 80 | 44 | 120 | 40 to 80 | 66 | CCn1ncc2c1CCC(Nc1nc3c(-c4cnccc4OC)cccn3n1)C2 (centres unmarked) [Example 68, (1-Ethyl-4,5,6,7-tetrahydro-1H-indazol-5-yl)-[8-(4-methoxy-pyridin-3-yl)-[1,2,4]triazolo[1,5-a]pyridine-2-yl]-amine]
9 | < 40 | 26 | 70 | 40 to 80 | 72 | CCn1ncc2c1CCC(Nc1nc3c(-c4ccccc4)cccn3n1)C2 (centres unmarked) [Example 57, (1-Ethyl-4,5,6,7-tetrahydro-1H-indazol-5-yl)-(8-phenyl-[1,2,4]triazolo[1,5-a]pyridine-2-yl)-amine]
10 | < 40 | 28 | 40 | 40 to 80 | 42 | CCn1ncc2c1CCC(Nc1nc3c(-c4cccc(Cl)c4)cccn3n1)C2 (centres unmarked) [Example 59, [8-(3-Chloro-phenyl)-[1,2,4]triazolo[1,5-a]pyridine-2-yl]-(1-ethyl-4,5,6,7-tetrahydro-1H-indazol-5-yl)-amine]

Reference: US11339161B2, “Triazolo pyridines as modulators of gamma-secretase” (Boehringer Ingelheim International GmbH, priority 2017, dated 2022)
